ChEMBL document CHEMBL1138422, “Anti-influenza virus activity of biflavonoids” (Bioorg Med Chem Lett, 2007)
In brackets after ≈: the same amount, converted by molar mass. Activity calls are given as the source filed them. No cut-off for these calls is given here.

Assays:
[1] = Inhibition of influenza A/PR/8/34(H1N1) virus sialidase after 10 mins by fluorometric assay; parameters: species or system Influenza A virus (A/Puerto Rico/8/1934(H1N1))
[2] = Inhibition of influenza A/Guizhou/54/89(H3N2) virus sialidase after 10 mins by fluorometric assay; parameters: species or system Influenza A virus (A/Guizhou/54/89(H3N2))
[3] = system: MDCK; assay: Cytotoxicity in influenza A/PR/8/34 virus infected MDCK cells after 3 days by MTT assay; type: cell-based, Canis lupus familiaris; conditions: dog, 72 h
[4] = Inhibition of influenza B/Ibaraki/2/85 virus sialidase after 10 mins by fluorometric assay; parameters: species or system Influenza B virus (B/Ibaraki/2/85)
[5] = system: Influenza A virus; assay: Antiinfluenza virus activity in mouse infected with influenza virus A/PR/8/34(H1N1) assessed as survival rate at 0.5 mg/kg administered intranasally after 10 days; type: functional, A/Puerto Rico/8/1934(H1N1)
[6] = system: Influenza A virus (A/Puerto Rico/8/1934(H1N1)); assay: Antiinfluenza virus activity in mouse infected with influenza virus A/PR/8/34(H1N1) assessed as survival rate at 0.5 mg/kg administered intranasally after 21 days; type: functional, BALB/c
[7] = system: Influenza A virus; assay: Inhibition of influenza virus A/PR/8/34(H1N1) proliferation on MDCK cells at 12.5 ug/mL; type: functional, organism-based; conditions: A/Puerto Rico/8/1934(H1N1)

| Compound | IC50 [1] [µg/mL] | IC50 [2] [µg/mL] | Activity [3] | IC50 [4] [µg/mL] | Activity [5] [%] | Activity [6] [%] | Activity [7] |
| --- | --- | --- | --- | --- | --- | --- | --- |
| COC(=O)[C@@]1(Oc2cc(O)c3c(=O)cc(-c4ccc(O)cc4)oc3c2-c2cc(-c3cc(=O)c4c(O)cc(OC)cc4o3)ccc2OC)C[C@H](OC(C)=O)[C@@H](NC(C)=O)[C@H]([C@H](OC(C)=O)[C@@H](COC(C)=O)OC(C)=O)O1 (stereo in doubt; 6R) | 79.2 (≈ 76.2 µM) | > 10 | Non-toxic |  |  |  |  |
| COC(=O)[C@@]1(Oc2cc(O)c3c(=O)cc(-c4ccc(O)cc4)oc3c2-c2cc(-c3cc(=O)c4c(O)cc(OC)cc4o3)ccc2OC)C[C@H](OC(C)=O)[C@@H](NC(C)=O)[C@H]([C@H](OC(C)=O)[C@@H](COC(C)=O)OC(C)=O)O1 (stereo in doubt; 6S) | > 100 | 1.1 (≈ 1.06 µM) |  | > 100 |  |  |  |
| COC(=O)[C@@]1(Oc2ccc(-c3cc(=O)c4c(O)cc(O[C@]5(C(=O)OC)C[C@H](OC(C)=O)[C@@H](NC(C)=O)[C@H]([C@H](OC(C)=O)[C@@H](COC(C)=O)OC(C)=O)O5)c(-c5cc(-c6cc(=O)c7c(O)cc(OC)cc7o6)ccc5OC)c4o3)cc2)C[C@H](OC(C)=O)[C@@H](NC(C)=O)[C@H]([C@H](OC(C)=O)[C@@H](COC(C)=O)OC(C)=O)O1 (stereo in doubt; 7R) |  | 1.35 (≈ 0.892 µM) |  |  |  |  |  |
| COC(=O)[C@@]1(Oc2ccc(-c3cc(=O)c4c(O)cc(O[C@]5(C(=O)OC)C[C@H](OC(C)=O)[C@@H](NC(C)=O)[C@H]([C@H](OC(C)=O)[C@@H](COC(C)=O)OC(C)=O)O5)c(-c5cc(-c6cc(=O)c7c(O)cc(OC)cc7o6)ccc5OC)c4o3)cc2)C[C@H](OC(C)=O)[C@@H](NC(C)=O)[C@H]([C@H](OC(C)=O)[C@@H](COC(C)=O)OC(C)=O)O1 (stereo in doubt; 7S) | > 100 | > 10 | Non-toxic | > 100 |  |  |  |
| COc1cc(O)c2c(=O)cc(-c3ccc(OC)c(-c4c(O[C@]5(C(=O)O)C[C@H](O)[C@@H](NC(C)=O)[C@H]([C@H](O)[C@H](O)CO)O5)cc(O)c5c(=O)cc(-c6ccc(O)cc6)oc45)c3)oc2c1 (stereo in doubt; 8R) [listing 1 of 2 here] | 5.5 (≈ 6.41 µM) | 0.82 (≈ 0.956 µM) |  | 9.11 (≈ 10.6 µM) | 75 | 62.5 |  |
| COc1cc(O)c2c(=O)cc(-c3ccc(OC)c(-c4c(O[C@]5(C(=O)O)C[C@H](O)[C@@H](NC(C)=O)[C@H]([C@H](O)[C@H](O)CO)O5)cc(O)c5c(=O)cc(-c6ccc(O)cc6)oc45)c3)oc2c1 (stereo in doubt; 8R) [listing 2 of 2 here] |  |  |  |  |  |  | Active |
| COc1cc(O)c2c(=O)cc(-c3ccc(OC)c(-c4c(O[C@]5(C(=O)O)C[C@H](O)[C@@H](NC(C)=O)[C@H]([C@H](O)[C@H](O)CO)O5)cc(O)c5c(=O)cc(-c6ccc(O)cc6)oc45)c3)oc2c1 (stereo in doubt; 8S) [listing 1 of 2 here] | 6.35 (≈ 7.4 µM) | 0.99 (≈ 1.15 µM) | Non-toxic | 8.64 (≈ 10.1 µM) | 78 | 56 |  |
| COc1cc(O)c2c(=O)cc(-c3ccc(OC)c(-c4c(O[C@]5(C(=O)O)C[C@H](O)[C@@H](NC(C)=O)[C@H]([C@H](O)[C@H](O)CO)O5)cc(O)c5c(=O)cc(-c6ccc(O)cc6)oc45)c3)oc2c1 (stereo in doubt; 8S) [listing 2 of 2 here] |  |  |  |  |  |  | Active |
| COc1cc(O)c2c(=O)cc(-c3ccc(OC)c(-c4c(O[C@]5(C(=O)O)C[C@H](O)[C@@H](NC(C)=O)[C@H]([C@H](O)[C@H](O)CO)O5)cc(O)c5c(=O)cc(-c6ccc(O[C@]7(C(=O)O)C[C@H](O)[C@@H](NC(C)=O)[C@H]([C@H](O)[C@H](O)CO)O7)cc6)oc45)c3)oc2c1 (stereo in doubt; 9R) | 6.61 (≈ 5.75 µM) | 6.57 (≈ 5.72 µM) |  | 9.05 (≈ 7.88 µM) |  |  |  |
| COc1cc(O)c2c(=O)cc(-c3ccc(OC)c(-c4c(O[C@]5(C(=O)O)C[C@H](O)[C@@H](NC(C)=O)[C@H]([C@H](O)[C@H](O)CO)O5)cc(O)c5c(=O)cc(-c6ccc(O[C@]7(C(=O)O)C[C@H](O)[C@@H](NC(C)=O)[C@H]([C@H](O)[C@H](O)CO)O7)cc6)oc45)c3)oc2c1 (stereo in doubt; 9S) | 6.99 (≈ 6.08 µM) | 0.94 (≈ 0.818 µM) | Non-toxic | 9.34 (≈ 8.13 µM) |  |  |  |
| COc1c(O)cc(O)c2c(=O)cc(-c3ccc(O)cc3)oc12 [4'-HYDROXYWOGONIN] | 9.78 (≈ 32.6 µM) | 8.95 (≈ 29.8 µM) |  | 6.58 (≈ 21.9 µM) |  |  |  |
| COc1cc(O)c2c(=O)cc(-c3ccc(OC)c(-c4c(O)cc(O)c5c(=O)cc(-c6ccc(O)cc6)oc45)c3)oc2c1 [GINKGETIN] | 55 (≈ 97.1 µM) | 9.78 (≈ 17.3 µM) | Toxic | > 100 |  |  |  |
